Measured values: ChEMBL document CHEMBL3044835, “Pachyelasides A-D, novel molluscicidal triterpene saponins from Pachyelasma tessmannii” (2005)
Converted amounts (≈) assume the structure as drawn.

Tested on: Biomphalaria glabrata
Assay: Molluscicidal activity against Biomphalaria glabrata assessed as heartbeat measured after 24 hr
Assay type: functional
Conditions: read-out: LD50 (the source's name)

Row | Structure (SMILES) | LC50 [mg/L]
1 | CC1(C)CC[C@]2(C(=O)O)CC[C@]3(C)C(=CC[C@@H]4[C@@]5(C)CC[C@H](O[C@@H]6O[C@H](CO)[C@@H](O)[C@H](O)[C@H]6O[C@@H]6O[C@H](CO)[C@@H](O)[C@H](O[C@@H]7O[C@H](CO)[C@@H](O)[C@H](O)[C@H]7O[C@@H]7O[C@H](CO)[C@@H](O)[C@H](O)[C@H]7O)[C@H]6O)C(C)(C)[C@@H]5CC[C@]43C)[C@@H]2C1 [PACHYELASIDE B] | 2 (≈ 1.81 µM)
2 | CC1(C)C[C@H]2C3=CC[C@@H]4[C@@]5(C)CC[C@H](O[C@@H]6O[C@H](CO)[C@@H](O[C@@H]7OC[C@@H](O)[C@H](O)[C@H]7O)[C@H](O)[C@H]6O[C@@H]6OC[C@@H](O)[C@H](O[C@@H]7O[C@H](CO)[C@@H](O)[C@H](O)[C@H]7O[C@@H]7O[C@H](CO)[C@@H](O)[C@H](O)[C@H]7O)[C@H]6O)C(C)(C)[C@@H]5CC[C@@]4(C)[C@]3(C)CC[C@@]2(C(=O)O)C[C@@H]1OC(=O)/C=C/c1ccccc1 [PACHYELASIDE C] | 2 (≈ 1.48 µM)
3 | CC1(C)C[C@H]2C3=CC[C@@H]4[C@@]5(C)CC[C@H](O[C@@H]6O[C@H](CO)[C@@H](O[C@@H]7OC[C@@H](O)[C@H](O)[C@H]7O)[C@H](O)[C@H]6O[C@@H]6O[C@H](CO)[C@@H](O)[C@H](O[C@@H]7O[C@H](CO)[C@@H](O)[C@H](O)[C@H]7O[C@@H]7O[C@H](CO)[C@@H](O)[C@H](O)[C@H]7O)[C@H]6O)C(C)(C)[C@@H]5CC[C@@]4(C)[C@]3(C)CC[C@@]2(C(=O)O)C[C@@H]1OC(=O)/C=C/c1ccccc1 [PACHYELASIDE D] | 8 (≈ 5.78 µM)
4 | CC1(C)C[C@H]2C3=CC[C@@H]4[C@@]5(C)CC[C@H](O[C@@H]6O[C@H](CO)[C@@H](O)[C@H](O)[C@H]6O[C@@H]6O[C@H](CO)[C@@H](O)[C@H](O[C@@H]7O[C@H](CO)[C@@H](O)[C@H](O)[C@H]7O[C@@H]7O[C@H](CO)[C@@H](O)[C@H](O)[C@H]7O)[C@H]6O)C(C)(C)[C@@H]5CC[C@@]4(C)[C@]3(C)CC[C@@]2(C(=O)O)C[C@@H]1OC(=O)/C=C/c1ccccc1 [PACHYELASIDE-A] | 2 (≈ 1.6 µM)
